Laboratory results taken from patent publication US10722514B2 (FLX Bio, Inc., priority 2017, dated 2020).
Structures can show the parent of a compound that is named as a salt.

Target: T1, recombinant full-length USP7 (Homo sapiens, UniProt Q93009)
T1 construct: A 25 μl reaction volume containing recombinant full-length USP7 (62 pM)
Assay: USP7-mediated ubiquitin-rhodamine cleavage assay
Assay type: biochemical
Conditions: recombinant full-length USP7 62 pM; ubiquitin-rhodamine 100 nM; 30-minute incubation with compound, 1 hour reaction at room temperature; read-out: Potency: USP7 IC50
Outline: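 After compound and enzyme (62 pM) sat together 30 min at RT, 100 nM fluorogenic ubiquitin-rhodamine substrate was added for 1 h protected from light. Acetic acid quenched the reaction prior to the fluorescence read.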

T1 sequence (Q93009 whole entry): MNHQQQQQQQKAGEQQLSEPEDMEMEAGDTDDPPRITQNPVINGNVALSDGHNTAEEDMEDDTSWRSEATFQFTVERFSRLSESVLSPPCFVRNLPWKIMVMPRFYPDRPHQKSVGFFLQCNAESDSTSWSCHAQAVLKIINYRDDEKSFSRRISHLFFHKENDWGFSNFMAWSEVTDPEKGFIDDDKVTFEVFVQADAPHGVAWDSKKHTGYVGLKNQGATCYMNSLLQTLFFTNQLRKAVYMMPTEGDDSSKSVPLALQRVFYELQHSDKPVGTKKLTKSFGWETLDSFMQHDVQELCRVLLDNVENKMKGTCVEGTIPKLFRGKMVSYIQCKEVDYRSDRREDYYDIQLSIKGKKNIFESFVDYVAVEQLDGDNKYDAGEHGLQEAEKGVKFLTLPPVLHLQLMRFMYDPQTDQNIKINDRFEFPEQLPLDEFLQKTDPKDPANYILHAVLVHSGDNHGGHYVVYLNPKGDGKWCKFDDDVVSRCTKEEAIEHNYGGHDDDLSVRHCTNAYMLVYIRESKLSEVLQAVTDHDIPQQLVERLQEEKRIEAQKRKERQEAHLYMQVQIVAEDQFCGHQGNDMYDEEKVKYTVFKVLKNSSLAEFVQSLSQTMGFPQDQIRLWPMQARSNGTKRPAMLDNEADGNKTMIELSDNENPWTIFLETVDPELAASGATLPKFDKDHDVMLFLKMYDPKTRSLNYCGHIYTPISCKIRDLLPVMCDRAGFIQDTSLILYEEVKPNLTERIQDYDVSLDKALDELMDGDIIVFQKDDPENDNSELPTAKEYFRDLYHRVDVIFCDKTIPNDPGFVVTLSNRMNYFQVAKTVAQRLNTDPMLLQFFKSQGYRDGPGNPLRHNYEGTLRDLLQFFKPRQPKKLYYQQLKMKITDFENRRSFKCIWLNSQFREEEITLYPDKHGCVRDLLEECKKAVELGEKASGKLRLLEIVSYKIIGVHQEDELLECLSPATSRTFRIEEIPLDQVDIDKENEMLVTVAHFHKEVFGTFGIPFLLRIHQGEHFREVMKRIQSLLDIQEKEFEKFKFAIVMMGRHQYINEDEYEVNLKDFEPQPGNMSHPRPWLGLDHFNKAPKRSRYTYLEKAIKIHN

IC50, < 1 µM:
Cc1cc(Cl)cc(-c2ccnc3cc(CN4C(=O)C5C(C4=O)C5(C)C)sc23)c1O[C@@H]1CNCC[C@@H]1C (stereo partly drawn) [Example 340, 3-[[7-[5-chloro-3-methyl-2-[[(3S,4S)-4-methyl-3-piperidyl]oxy]phenyl]thieno[3,2-b]pyridin-2-yl]methyl]-6,6-dimethyl-3-azabicyclo[3.1.0]hexane-2,4-dione]
Cc1cc(C(F)(F)F)cc(-c2ccnc3cc(CN4C(=O)C5CC5C4=O)sc23)c1O[C@@H]1CNC[C@@H]1F (stereo partly drawn) [Example 131, 3-((7-(2-(((3R,4S)-4-Fluoropyrrolidin-3-yl)oxy)-3-methyl-5-(trifluoromethyl)phenyl)thieno[3,2-b]pyridin-2-yl)methyl)-3-azabicyclo[3.1.0]hexane-2,4-dione]
Cc1cc(Cl)cc(-c2ccnc3cc(CN4C(=O)CCC4=O)sc23)c1O[C@H]1CCCCNC1 [Example 268, (S)-1-((7-(2-(azepan-3-yloxy)-5-chloro-3-methylphenyl)thieno[3,2-b]pyridin-2-yl)methyl)pyrrolidine-2,5-dione]
Cc1cc(Cl)cc(-c2ccnc3cc(CN4C(=O)CCC4=O)sc23)c1OC1CNCC1(C)C (centres unmarked) [Example 345, 1-[[7-[5-chloro-2-(4,4-dimethylpyrrolidin-3-yl)oxy-3-methyl-phenyl]thieno[3,2-b]pyridin-2-yl]methyl]pyrrolidine-2,5-dione]
Cc1cc(Cl)cc(-c2ccnc3cc(CN4C(=O)SC(C)(C)C4=O)sc23)c1O[C@@H]1CNC[C@@H]1F [Example 145, 3-((7-(5-Chloro-2-(((3R,4S)-4-fluoropyrrolidin-3-yl)oxy)-3-methylphenyl)thieno[3,2-b]pyridin-2-yl)methyl)-5,5-dimethylthiazolidine-2,4-dione]
Cc1cc(Cl)cc(-c2ncnc3cc(CN4C(=O)C5C(C4=O)C5(C)C)sc23)c1OC1CCNC1(C)C (centres unmarked) [Example 370, 3-[[4-[5-chloro-2-(2,2-dimethylpyrrolidin-3-yl)oxy-3-methyl-phenyl]thieno[3,2-d]pyrimidin-6-yl]methyl]-6,6-dimethyl-3-azabicyclo[3.1.0]hexane-2,4-dione]
Cc1cc(Cl)cc(-c2ccnc3cc([C@@H](C)N4C(=O)C5C(C4=O)C5(C)C)sc23)c1OC1CCC(C)NC1 (stereo partly drawn) [Example 397, 3-[(1R)-1-[7-[5-chloro-3-methyl-2-[(6-methyl-3-piperidyl)oxy]phenyl]thieno[3,2-b]pyridin-2-yl]ethyl]-6,6-dimethyl-3-azabicyclo[3.1.0]hexane-2,4-dione; 2,2,2-trifluoroacetic acid]
Cc1cc(Cl)cc(-c2ccnc3cc(CN4C(=O)C5C(C4=O)C5(C)C)sc23)c1O[C@@H]1CNC[C@@H]1C(F)F (stereo partly drawn) [Example 389, 3-[[7-[5-chloro-2-[(3S,4S)-4-(difluoromethyl)pyrrolidin-3-yl]oxy-3-methyl-phenyl]thieno[3,2-b]pyridin-2-yl]methyl]-6,6-dimethyl-3-azabicyclo[3.1.0]hexane-2,4-dione dihydrochloride]
Cc1cc(Cl)cc(-c2ccnc3cc(CN4C(=O)CCN(C)C4=O)sc23)c1O[C@H]1CCCNC1 [Example 162, (S)-3-((7-(5-Chloro-3-methyl-2-(piperidin-3-yloxy)phenyl)thieno[3,2-b]pyridin-2-yl)methyl)-1-methyldihydropyrimidine-2,4(1H,3H)-dione]
Cc1cc(Cl)cc(-c2ncnc3cc(CN4C(=O)CN(C)C4=O)sc23)c1O[C@@H]1CNC[C@@H]1F [Example 146, 3-((4-(5-Chloro-2-(((3R,4S)-4-fluoropyrrolidin-3-yl)oxy)-3-methylphenyl)thieno[3,2-d]pyrimidin-6-yl)methyl)-1-methylimidazolidine-2,4-dione]
Cc1cc(Cl)cc(-c2ccnc3cc(CO)sc23)c1OCC1(C#N)CNC1 [Example 41, 3-((4-Chloro-2-(2-(hydroxymethyl)thieno[3,2-b]pyridin-7-yl)-6-methylphenoxy)methyl)azetidine-3-carbonitrile]
Cc1cc(C#N)cc(-c2ccnc3cc(CN4C(=O)CCC4=O)sc23)c1O[C@@H]1CNC[C@@H]1F [Example 97, 3-(2-((2,5-Dioxopyrrolidin-1-yl)methyl)thieno[3,2-b]pyridin-7-yl)-4-(((3R,4S)-4-fluoropyrrolidin-3-yl)oxy)-5-methylbenzonitrile]
Cc1cc(Cl)cc(-c2ccnc3cc(CN4C(=O)C5C(C4=O)C5(C)C)sc23)c1O[C@H]1CC[C@H](N)C1 (stereo partly drawn) [Example 394, 3-[[7-[2-[(1S,3S)-3-aminocyclopentoxy]-5-chloro-3-methyl-phenyl]thieno[3,2-b]pyridin-2-yl]methyl]-6,6-dimethyl-3-azabicyclo[3.1.0]hexane-2,4-dione dihydrochloride]
Cc1cc(Cl)cc(-c2ccnc3cc(Cn4c(=O)ccn(CC(F)(F)F)c4=O)sc23)c1O[C@@H]1CNCC[C@@H]1C [Example 337, 3-[[7-[5-chloro-3-methyl-2-[[(3S,4S)-4-methyl-3-piperidyl]oxy]phenyl]thieno[3,2-b]pyridin-2-yl]methyl]-1-(2,2,2-trifluoroethyl)pyrimidine-2,4-dione]

IC50, 1 to 10 µM:
CCC(O)c1cc2nccc(-c3cc(Cl)cc(C)c3O[C@H]3CCCNC3)c2s1 (stereo partly drawn) [Example 164, 1-(7-(5-Chloro-3-methyl-2-(((S)-piperidin-3-yl)oxy)phenyl)thieno[3,2-b]pyridin-2-yl)propan-1-ol]
Cc1cc(Cl)cc(-c2ccnc3cc(CO)sc23)c1OCC1CNC1 [Example 19, (7-(2-(Azetidin-3-ylmethoxy)-5-chloro-3-methylphenyl)thieno[3,2-b]pyridin-2-yl)methanol]
Cc1cc(Cl)cc(-c2ccnc3cc(CN4C(=O)CCC4=O)sc23)c1OC1CCN(C2COC2)CC1 [Example 207, 1-((7-(5-Chloro-3-methyl-2-((1-(oxetan-3-yl)piperidin-4-yl)oxy)phenyl)thieno[3,2-b]pyridin-2-yl)methyl)pyrrolidine-2,5-dione]

Same assay, conditions: recombinant full-length USP7 62 pM; ubiquitin-rhodamine 100 nM; 30-minute incubation, 1 hour reaction at room temperature; read-out: Potency (USP7 IC50)

IC50, < 1 µM:
Cc1cc(Cl)cc(-c2ccnc3cc(Cn4c(=O)ccn(CC(F)(F)F)c4=O)sc23)c1O[C@H]1C[C@@H]2NCCO[C@@H]2C1 [Example 696, 3-[[7-[2-[[(4aS,6S,7aR)-2,3,4,4a,5,6,7,7a-octahydrocyclopenta[b][1,4]oxazin-6-yl]oxy]-5-chloro-3-methyl-phenyl]thieno[3,2-b]pyridin-2-yl]methyl]-1-(2,2,2-trifluoroethyl)pyrimidine-2,4-dione]

Same assay, conditions: recombinant full-length USP7 62 pM; ubiquitin-rhodamine 100 nM; 30-minute pre-incubation, 1 hour reaction at room temperature; read-out: Potency (USP7 IC50)

IC50, < 1 µM:
Cc1cc(Cl)cc(-c2ccnc3cc(Cn4c(=O)ccn(C)c4=O)sc23)c1O[C@@H]1CN[C@H](C(=O)O)C1 [Example 486, (2S,4S)-4-[4-chloro-2-methyl-6-[2-[(3-methyl-2,6-dioxo-pyrimidin-1-yl)methyl]thieno[3,2-b]pyridin-7-yl]phenoxy]pyrrolidine-2-carboxylic acid]
Cc1cc(Cl)cc(-c2ccnc3cc(Cn4c(=O)ccn(C)c4=O)sc23)c1OC1C(C)(C)C(N)C1(C)C (centres unmarked) [Example 538, 3-[[7-[2-(3-amino-2,2,4,4-tetramethyl-cyclobutoxy)-5-chloro-3-methyl-phenyl]thieno[3,2-b]pyridin-2-yl]methyl]-1-methyl-pyrimidine-2,4-dione]
Cc1cc(Cl)cc(-c2ncnc3cc(Cn4c(=O)ccn(CC(F)(F)F)c4=O)sc23)c1O[C@@H]1CCN(C)C[C@@H]1C [Example 528, 3-[[4-[5-chloro-2-[[(3S,4R)-1,3-dimethyl-4-piperidyl]oxy]-3-methyl-phenyl]thieno[3,2-d]pyrimidin-6-yl]methyl]-1-(2,2,2-trifluoroethyl)pyrimidine-2,4-dione]
Cc1cc(Cl)cc(-c2ncnc3cc(Cn4c(=O)ccn(CC(F)(F)F)c4=O)sc23)c1O[C@H]1CC[C@H](C)NC1 [Example 562, 3-[[4-[5-chloro-3-methyl-2-[[(3S,6S)-6-methyl-3-piperidyl]oxy]phenyl]thieno[3,2-d]pyrimidin-6-yl]methyl]-1-(2,2,2-trifluoroethyl)pyrimidine-2,4-dione; 2,2,2-trifluoroacetic acid]
Cc1cc(Cl)cc(-c2ccnc3cc(Cn4c(=O)ccn(C)c4=O)sc23)c1O[C@H]1CNC[C@H](C)C1 [Example 537, 3-[[7-[5-chloro-3-methyl-2-[[(3R,5R)-5-methyl-3-piperidyl]oxy]phenyl]thieno[3,2-b]pyridin-2-yl]methyl]-1-methyl-pyrimidine-2,4-dione]
CCN1C[C@H]2C[C@@H]1[C@H](Oc1c(C)cc(Cl)cc1-c1ccnc3cc(Cn4c(=O)ccn(CC(F)(F)F)c4=O)sc13)C2 [Example 619, 3-[[7-[5-chloro-2-[[(1S,4R,5R)-3-ethyl-3-azabicyclo[2.2.1]heptan-5-yl]oxy]-3-methyl-phenyl]thieno[3,2-b]pyridin-2-yl]methyl]-1-(2,2,2-trifluoroethyl)pyrimidine-2,4-dione]
Cc1cc(Cl)cc(-c2ccnc3cc(CN4C(=O)CCC4=O)sc23)c1OC1CC[C@@H](C)NC1 (stereo partly drawn) [Example 463, 1-[[7-[5-chloro-3-methyl-2-[[(6R)-6-methyl-3-piperidyl]oxy]phenyl]thieno[3,2-b]pyridin-2-yl]methyl]pyrrolidine-2,5-dione; 2,2,2-trifluoroacetic acid]
Cc1cc(Cl)cc(-c2ccnc3cc(Cn4c(=O)ccn(CC(F)(F)F)c4=O)sc23)c1OC1CCNCC1(C)C (centres unmarked) [Example 616, 3-[[7-[5-chloro-2-[(3,3-dimethyl-4-piperidyl)oxy]-3-methyl-phenyl]thieno[3,2-b]pyridin-2-yl]methyl]-1-(2,2,2-trifluoroethyl)pyrimidine-2,4-dione; 2,2,2-trifluoroacetic acid]
